Values after ≈ are worked out from the molar mass of the structure shown.

A short description of data set [1]: Solubility (physicochemical properties).
For data set [2], the system named is Serratia marcescens IID620. The experiment in a line: In vitro antibacterial activity (MIC), agar plate dilution method using Müller-Hinton medium. It is filed as cell-based. On the procedure: (§1) In vitro antibacterial activity (MIC) The antibacterial spectrum of the macrolide compound of the present invention was determined by the agar plate dilution method using Müller-Hinton medium which is commonly used for this purpose.

The subject of data set [3] is Streptococcus pneumoniae IID552. The data set is described as above. It is filed as cell-based. As for the experimental part: as §1
Data set [4] concerns Enterococcus faecalis IID682. The description is as above. It is filed as cell-based. As for the experimental part: as §1
The test system of data set [5] is Klebsiella pneumoniae ATTCC10031. The data set is described as above. It is filed as cell-based. As for the experimental part: as §1
For data set [6], the system named is Staphylococcus aureus FDA 209P. The data set is described as above. It is filed as cell-based. The note with it: FDA209P. On the procedure:
as §1

The test system of the next data set is Proteus vulgalis OX-19. Described as above. It is filed as cell-based. On the procedure: as §1
The test system of data set [7] is Pseudomonas aeruginosa IID5142. The data set is described as above. It is filed as cell-based. As for the experimental part:
as §1

In a further data set the test system is Escherichia coli 0-1. The description is as above. It is filed as cell-based. The note with it: 01. On the procedure: as §1
The test system of data set [8] is Staphylococcus epidermidis IID866. The description is as above. It is filed as cell-based. As for the experimental part: as §1
The test system of data set [9] is Streptococcus pyogenes Cook. Described as above. It is filed as cell-based. As for the experimental part: as §1
Data set [10] concerns Staphylococcus aureus FDA 209P JC-1. Described as above. It is filed as cell-based. The note with it: FDA209P. As for the experimental part:
as §1

The mark [11] stands for this setting: in methanol, ethanol, acetone, ethyl acetate, benzene, toluene and chloroform.

What is called MIC is the lowest concentration found to suppress growth. Take `COC1C(OCC(C)C2OC(=O)C(C)C(OC3CC(C)(O)C(O)C(C)O3)C(C)C(OC3OC(C)CC(=O)C3O)C(C)CC(C)(O)C(=O)C(C)C(OC(=O)CC(C)C)C2C)OC(C)C(O)C1OC` (stereo not drawn) [YL-02107Q substance]: the Solubility result in data set [1] (setting [11]) is on record as “Soluble”; in [1] (in water and hexane) it was “only sparingly soluble”. In addition, the MIC was more than 100 µg/mL in data set [2]; 3.13 µg/mL (≈ 3.25 µM) in data set [3]; 1.56 µg/mL (≈ 1.62 µM) in data set [4]; more than 100 µg/mL in data set [5]; 0.78 µg/mL (≈ 0.81 µM) in data set [6]; more than 100 µg/mL against Proteus vulgalis OX-19. Further, the minimal inhibitory concentration (MIC) was more than 100 µg/mL in data set [7], more than 100 µg/mL in the data set with Escherichia coli 0-1, 0.78 µg/mL (≈ 0.81 µM) in data set [8] and 0.39 µg/mL (≈ 0.405 µM) in data set [9].

Consider `COC1C(OCC(C)C2OC(=O)C(C)C(OC3CC(O)C(O)C(C)O3)C(C)C(OC3OC(C)CC(=O)C3O)C(C)CC(C)(O)C(=O)C(C)C(OC(=O)CC(C)C)C2C)OC(C)C(O)C1OC` (stereo not drawn) [YL-02107Q-B substance], for which the Solubility result is listed as “Soluble” in [1] (setting [11]); “only sparingly soluble” in data set [1] (in water and hexane). The minimum inhibitory concentration (MIC) in [2] is more than 50 µg/mL; in [10] it was 3.13 µg/mL (≈ 3.3 µM); in data set [3], 50 µg/mL (≈ 52.7 µM); in [4] it was 25 µg/mL (≈ 26.3 µM); in data set [5], more than 50 µg/mL; with Proteus vulgalis OX-19, more than 50 µg/mL. Moreover, the minimum inhibitory concentration (MIC) in data set [7] is more than 50 µg/mL; in the data set on Escherichia coli 0-1 it was more than 50 µg/mL; in [8] it was 3.13 µg/mL (≈ 3.3 µM); in data set [9], 0.78 µg/mL (≈ 0.822 µM).

`COC1C(OCC(C)C2OC(=O)C(C)C(OC3CC(C)(O)C(O)C(C)O3)C(C)C(OC3OC(C)CC(=O)C3O)C(C)CC(C)(O)C(=O)C(C)C(O)C2C)OC(C)C(O)C1OC` (stereo not drawn) [YL-02107Q-D substance]: the Solubility result was “Soluble” in data set [1] (setting [11]); “only sparingly soluble” in [1] (in water and hexane). Besides, the MIC in [2] was more than 50 µg/mL; in data set [10], 3.13 µg/mL (≈ 3.56 µM); in data set [3], more than 50 µg/mL; in data set [4] it was more than 50 µg/mL; in data set [5], more than 50 µg/mL; against Proteus vulgalis OX-19, more than 50 µg/mL. In addition, the MIC in data set [7] is more than 50 µg/mL; in the data set on Escherichia coli 0-1, more than 50 µg/mL; in data set [8], 1.56 µg/mL (≈ 1.77 µM); in data set [9] it was 0.78 µg/mL (≈ 0.887 µM).

For the origin of these results see EP0596112A1, “NOVEL MACROLIDE COMPOUND AND PRODUCTION THEREOF” (YAMANOUCHI PHARMACEUTICAL CO. LTD., priority 1991, dated 1992).
